The numbers were not newly measured in patent US20090088424A1, “METHODS AND COMPOSITIONS FOR CONTROLLING THE BIOAVAILABILITY OF POORLY SOLUBLE DRUGS” (priority 2007, published 2009), which cites them from elsewhere.

As a reminder, the aqueous solubility is how much of the substance goes into solution per volume.

For this series the following is noted: pH 8.7, 25° C.

Values after ≈ are worked out from the molar mass of the structure shown.

As to `O=C1Nc2ccc(Cl)cc2[C@@](C#CC2CC2)(C(F)(F)F)O1` [Efavirenz, (S)-6-chloro-4-(cyclopropylethynyl)-1,4-dihydro-4-(trifluoromethyl)-2H-3,1-benzoxazin-2-one], the aqueous solubility is 9.2 µg/mL (≈ 29.1 µM).
